Source: patent US20100183600A1, “RAF Inhibitors and Their Uses” (ARQULE, INC., priority 2008, published 2010)

Assays:
mutant B-RAF = biological target: T1, mutant B-RAF (Homo sapiens, UniProt P15056, V600E); test: Measurement of RAF activity (MEK-1 phosphorylation); type: biochemical; details: 50 μM ATP, MEK-1 substrate; read-out: Mut-B-Raf IC50
T1 construct: purchased Upstate (Charlottesville, Va.)
Experimental: Materials: The RAF kinases and the anti-phospho MEK1/2 antibody were from Upstate (Charlottesville, Va.). The RAF substrate used was full length N-terminal GST-MEK-1, which was expressed in E. coli and purified in-house by HPLC. All proteins were aliquoted and stored at −80° C. Superblock™ in phosphate buffered saline (PBS) blocking reagent was form Pierce (cat. #37515). ATP was from Roche (cat. # 19035722). Alkaline Phosphatase-tagged goat anti-rabbit antibody was from Pierce (cat. # 31340).
Methods: All RAF biochemical assays were performed using an assay buffer containing 20 mM MOPS, 5 mM EGTA, 37.5 mM MgCl2, 1 mM DTT and 50 μM ATP. There was 6.25 ng/well mutant B-RAF and 7.5 ng/well MEK-1 in the final assay conditions. Compounds were serially diluted in assay buffer containing 1% DMSO and 20 μl of test compound at a concentration 3-fold more than the final concentration, and were added to a polypropylene V-well reaction plate. Vehicle control wells received buffer only with DMSO at equivalent concentrations to the test wells. […] These reaction plates were incubated at room temperature for 30 minutes. Capture of MEK-1 was initiated by transferring 50 μl of the reaction mixture to a Nunc Maxisorp™ microplate that is designed for non-specific protein capture. After 30 minute capture of MEK-1 at room temperature, this plate was washed with TBST (6×200 μL/well) to fully terminate the reaction. The plate was then blocked for 1 hour by the addition of 100 μl/well of Superblock™ in phosphate buffered saline (PBS) blocking reagent. Plate was again washed with TBST (6 times with 200 μl/well), followed by the addition of 70 μl/well of Upstate anti-phospho MEK ½ diluted 1:1000 in Pierce Superblock (PBS). After a 60 minute incubation, this plate was washed with TBST (6 times with 200 μl/well), and 70 μl of the secondary antibody (Pierce Alkaline Phosphatase tagged goat anti-rabbit) prepared at 1:4000 in Superblock, were added. After a 45 minute incubation at room temperature, the wells of the microplate were washed with TBST (6 times with 200 μl/well), and thereafter 100 μl/well of Attophos™ fluorescent alkaline phosphatase substrate was added according to the manufacturer's instructions (JBL Scientific). Fluorescence was read on a Perkin Elmer Envision multilabel reader, using the following filters: Excitation Filter: CFP430 nM, Emission Filter: Emission Filter 579 nM.

MKN-45 = test: Cell growth inhibition assay (MTS); type: cell-based; details: Homo sapiens; MKN-45, stomach
Experimental: (§1) Compounds of the present invention have been tested for activity against a variety of cancer cell lines. The ability of compounds to inhibit cell growth in this assay is correlated with the reduction of dehydrogenase enzyme activity found in metabolically active cells.
(§2) Materials: A large variety of cancer cells from ATCC were maintained at 37° C., 5% CO2 in DMEM media supplemented with 10% fetal bovine serum, penicillin/streptomycin and fungizone (Invitrogen). NCM460 (Incell), a normal colon epithelial cell line, and human mammary epithelial cells (Cambrex) were maintained at 37° C., 5% CO2 in DMEM and HEBM media (Cambrex), respectively.
(§3) Methods: Test compounds were dissolved and diluted to 300× in DMSO then diluted 1:40 in DMEM. Cells were seeded into 96-well tissue culture plates at 1-5×10^3 per well and cultured at 37° C. for 24 h. Cells were incubated with test compounds for 72 hours followed by incubation with tetrazolium compound (3-(4,5-dimethylthiazol-2-yl)-5-(3-carboxymethoxyphenyl)-2-(4-sulfophenyl)-2H-tetrazolium, inner salt; MTS) and the electron coupling reagent, phenazine methosulfate (PMS) for 4 hr. […] The measurement of the absorbance of the formazan was assessed using an ENVISION™ (Perkin Elmer) microplate reader at 492 nm. The calculated IC50 value is the concentration of the test compound that causes a 50% decrease in the absorbance.

HEC1A = test: Cell growth inhibition assay (MTS); type: cell-based; details: Homo sapiens, HEC-1-A, endometrial
Experimental: as §1, §2, §3

NCI-H661 = test: Cell growth inhibition assay (MTS); type: cell-based; details: Homo sapiens; NCI-H661, large cell lung carcinoma
Experimental: as §1, §2, §3

CC5292 = test: Cell growth inhibition assay (MTS); type: cell-based; details: Homo sapiens; CC5292, MiT
Experimental: as §1, §2, §3

RT112 = test: Cell growth inhibition assay (MTS); type: cell-based; details: RT-112; RT112, human urinary bladder cell carcinoma
Experimental: as §1, §2, §3

SKMES-1 = test: Cell growth inhibition assay (MTS); type: cell-based; details: Homo sapiens, SK-MES-1; SKMES-1, squamous cell carcinoma
Experimental: as §1, §2, §3

SW480 = test: Cell growth inhibition assay (MTS); type: cell-based; details: Homo sapiens; SW480, colon
Experimental: as §1, §2, §3

NTERA-2 c1. D1 = test: Cell growth inhibition assay (MTS); type: cell-based; details: Homo sapiens, NTERA2; NTERA-2 c1. D1, testis pluripotent embryonal carcinoma
Experimental: as §1, §2, §3

SK-OV-3 = test: Cell growth inhibition assay (MTS); type: cell-based; details: Homo sapiens; SK-OV-3, ovary
Experimental: as §1, §2, §3

NCI-H520 = test: Cell growth inhibition assay (MTS); type: cell-based; details: Homo sapiens; NCI-H520, squamous cell lung carcinoma
Experimental: as §1, §2, §3

PANC-1 = test: Cell growth inhibition assay (MTS); type: cell-based; details: Homo sapiens; PANC-1, pancreas epithelioid carcinoma
Experimental: as §1, §2, §3

SW620 = test: Cell growth inhibition assay (MTS); type: cell-based; details: Homo sapiens, SW-620; SW620, colorectal adenocarcinoma
Experimental: as §1, §2, §3

NCI-H441 = test: Cell growth inhibition assay (MTS); type: cell-based; details: Homo sapiens; NCI-H441, lung papillary adenocarcinoma
Experimental: as §1, §2, §3

Kato111 = test: Cell growth inhibition assay (MTS); type: cell-based; details: Homo sapiens; Kato111, gastric carcinoma
Experimental: as §1, §2, §3

LOVO = test: Cell growth inhibition assay (MTS); type: cell-based; details: Homo sapiens, colorectal carcinoma
Experimental: as §1, §2, §3

CALU-6 = test: Cell growth inhibition assay (MTS); type: cell-based; details: Homo sapiens; CALU-6, lung
Experimental: as §1, §2, §3

COLO-205 = test: Cell growth inhibition assay (MTS); type: cell-based; details: Homo sapiens; COLO-205, colon
Experimental: as §1, §2, §3

PLC/PRF/5 = test: Cell growth inhibition assay (MTS); type: cell-based; details: Homo sapiens; PLC/PRF/5, liver
Experimental: as §1, §2, §3

RT4 = test: Cell growth inhibition assay (MTS); type: cell-based; details: RT-4; RT4, human urinary bladder cell carcinoma
Experimental: as §1, §2, §3

T1 sequence (P15056 whole entry V600E): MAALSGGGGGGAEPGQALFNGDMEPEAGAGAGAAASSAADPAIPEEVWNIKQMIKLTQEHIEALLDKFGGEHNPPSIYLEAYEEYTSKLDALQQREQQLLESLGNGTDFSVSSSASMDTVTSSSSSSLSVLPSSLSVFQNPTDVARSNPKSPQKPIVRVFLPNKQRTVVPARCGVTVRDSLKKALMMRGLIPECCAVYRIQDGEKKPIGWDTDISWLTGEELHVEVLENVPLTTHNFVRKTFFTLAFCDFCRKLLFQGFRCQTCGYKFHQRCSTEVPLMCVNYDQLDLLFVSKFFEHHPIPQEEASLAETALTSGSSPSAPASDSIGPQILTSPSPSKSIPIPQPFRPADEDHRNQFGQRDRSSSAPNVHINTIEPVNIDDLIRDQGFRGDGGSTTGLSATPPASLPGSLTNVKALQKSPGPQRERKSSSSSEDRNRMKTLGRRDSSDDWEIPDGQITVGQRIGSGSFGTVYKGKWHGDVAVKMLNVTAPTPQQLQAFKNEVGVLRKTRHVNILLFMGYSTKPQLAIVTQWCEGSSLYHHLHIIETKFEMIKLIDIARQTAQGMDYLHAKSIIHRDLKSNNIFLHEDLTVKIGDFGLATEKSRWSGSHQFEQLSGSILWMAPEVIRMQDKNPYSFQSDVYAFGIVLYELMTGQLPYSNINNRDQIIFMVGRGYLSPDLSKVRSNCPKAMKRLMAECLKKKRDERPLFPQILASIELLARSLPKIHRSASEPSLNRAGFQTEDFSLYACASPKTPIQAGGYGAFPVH

Row | SMILES | IC50 (mutant B-RAF) | GI50 (MKN-45) | GI50 (HEC1A) | GI50 (NCI-H661) | GI50 (CC5292) | GI50 (RT112) | GI50 (SKMES-1) | GI50 (SW480) | GI50 (NTERA-2 c1. D1) | GI50 (SK-OV-3) | GI50 (NCI-H520) | GI50 (PANC-1) | GI50 (SW620) | GI50 (NCI-H441) | GI50 (Kato111) | GI50 (LOVO) | GI50 (CALU-6) | GI50 (COLO-205) | GI50 (PLC/PRF/5) | GI50 (RT4)
1 | Cn1ccc(S(=O)(=O)N2CCC[C@@H](Nc3nccc(-c4c(-c5cccc(OCOP(=O)(O)O)c5)nc5occn45)n3)C2)n1 [Compound 19, (R)-(3-(5-(2-(1-(1-methyl-1H-pyrazol-3-ylsulfonyl)piperidin-3-ylamino)pyrimidin-4-yl)imidazo[2,1-b]oxazol-6-yl)phenoxy)methyl dihydrogen phosphate] | 2.92 µM | 21.4 µM | 2.72 µM | 16.2 µM | 8.2 µM | 1.92 µM | 9.02 µM | 8.27 µM | 5.32 µM | 13.7 µM | 20.2 µM | 29.7 µM | 22.8 µM | 17.8 µM | 6.11 µM | 2.17 µM | 2.97 µM | 0.25 µM | 13.6 µM | 10 µM
2 | Cn1ccc(S(=O)(=O)N2CCC[C@@H](Nc3nccc(-c4c(-c5cccc(O)c5)nc5occn45)n3)C2)n1 [Compound 17, (R)-3-(5-(2-(1-(1-methyl-1H-pyrazol-3-ylsulfonyl)piperidin-3-ylamino)pyrimidin-4-yl)imidazo[2,1-b]oxazol-6-yl)phenol] | 0.008 µM | – | – | – | – | – | – | – | – | – | – | – | – | – | – | – | – | – | – | –
